One compound from patent US9394299B2, “Rilyazine derivatives and compositions for the treatment of cancer” (Warner Babcock Institute for Green Chemistry, LLC, priority 2013, dated 2016) can be followed below.

Some results are limits rather than exact numbers.

The subject of test [1] is NCI-H322M (non-small cell lung cancer). Nature of the test: NCI five point dosing, NCI-H322M. In kind it is cell-based, human. The procedure:
(§1) RL-4 was evaluated against the 60 cell panel at five concentration levels, 10^−8 M, 10^−7 M, 10^−6 M, 10^−5 M and 10^−4 M.
(§2) The human tumor cell lines of the cancer screening panel are grown in RPMI 1640 medium containing 5% fetal bovine serum and 2 mM L-glutamine. Cells are inoculated into 96 well microtiter plates in 100 μL at plating densities ranging from 5,000 to 40,000 cells/well depending on the doubling time of individual cell lines. After cell inoculation, the microtiter plates are incubated at 37° C., 5% CO2, 95% air and 100% relative humidity for 24 h prior to addition of experimental drugs. […]
(§3) Following drug addition, the plates are incubated for an additional 48 h at 37° C., 5% CO2, 95% air, and 100% relative humidity. […] Bound stain is subsequently solubilized with 10 mM trizma base, and the absorbance is read on an automated plate reader at a wavelength of 515 nm. […]
(§4) The percentage growth is calculated at each of the five drug concentrations levels using the seven absorbance measurements, namely absorbance at time zero (Tz), absorbance of control after incubation (C), and absorbance of test sample after incubation in the presence of drug at each of the five concentration levels (Ti). The Growth Percent is calculated as it was for the 1 dose assay: Growth Percent=[(Ti−Tz)/(C−Tz)]×100 for cell line/drug combinations for which Ti≧Tz. […]

The test system of test [2] is NCI-H552 (non-small cell lung cancer). Nature of the test: NCI single point 10 μM, NCI-H552. The format is cell-based, human. The settings on record: 10^−5 M. How it is done:
The screening is a two-stage process, beginning with the evaluation of all compounds against 60 cell lines at a single dose of 10^−5 M.
as §2, §3
For the 1-dose 60 cell testing, the Growth Percent is calculated for each cell line/drug combination from the absorbance measurement for the no-drug control (C), the absorbance at time zero (Tz) and the absorbance measurement after incubation of the cells in the presence of drug (Ti): Growth Percent=[(Ti−Tz)/(C−Tz)]×100 for cell line/drug combinations for which Ti≧Tz. […]

The subject of another test is COLO 205 (Colon Cancer). The experiment in a line: NCI five point dosing, COLO 205. In kind it is cell-based. As to conditions: Homo sapiens, read-out: LC50 (the source's name). How it is done: as §1, §2, §3, §4

As to `S=c1c2ncccc2c(-c2ccccn2)nn1C1CCCCC1` [RL-4, 7-cyclohexyl-5-(pyridin-2-yl)pyrido[2,3-d]pyridazine-8(7H)-thione], the Growth Percent stood at 60% in test [1] (10^−4 M dose) and 91.26% in test [2]. Further, the GI50 in test [1] (Homo sapiens, five point dosing) was greater than 100 µM. Also, the CC50 in the test with COLO 205 (Colon Cancer) stood at 85.8 µM.
